From paper PMC12530842, “Potent, Selective, and Drug‐Like G Protein‐Coupled Receptor Kinase 5 and 6 Inhibitors: Design, Synthesis, and X‐Ray Structural Studies” (Chemmedchem, 2025)

Experiments:
Assay type in all cases: biochemical
[1] = molecular target: T1, GRK5 (Homo sapiens, UniProt P34947); assay: GRK5 kinase inhibition assay, phosphorylation of tubulin ([γ-32P]-ATP); details: for Selectivity GRK2/GRK5: fold selectivity for GRK5 over GRK2; for IC50: phosphorylation of the soluble substrate tubulin, ± standard deviation from 3 to 4 independent experiments
T1 construct: Human GR K5 (residues 1- 590) w ild- type and D 311N mutant w ere expressed in E. co li Rosetta; His tag (inferred from nickel-NTA purification); made in house; host or cells: E. coli Rosetta (DE3)
T1 sequence (P34947 whole entry, the tested form may be a part): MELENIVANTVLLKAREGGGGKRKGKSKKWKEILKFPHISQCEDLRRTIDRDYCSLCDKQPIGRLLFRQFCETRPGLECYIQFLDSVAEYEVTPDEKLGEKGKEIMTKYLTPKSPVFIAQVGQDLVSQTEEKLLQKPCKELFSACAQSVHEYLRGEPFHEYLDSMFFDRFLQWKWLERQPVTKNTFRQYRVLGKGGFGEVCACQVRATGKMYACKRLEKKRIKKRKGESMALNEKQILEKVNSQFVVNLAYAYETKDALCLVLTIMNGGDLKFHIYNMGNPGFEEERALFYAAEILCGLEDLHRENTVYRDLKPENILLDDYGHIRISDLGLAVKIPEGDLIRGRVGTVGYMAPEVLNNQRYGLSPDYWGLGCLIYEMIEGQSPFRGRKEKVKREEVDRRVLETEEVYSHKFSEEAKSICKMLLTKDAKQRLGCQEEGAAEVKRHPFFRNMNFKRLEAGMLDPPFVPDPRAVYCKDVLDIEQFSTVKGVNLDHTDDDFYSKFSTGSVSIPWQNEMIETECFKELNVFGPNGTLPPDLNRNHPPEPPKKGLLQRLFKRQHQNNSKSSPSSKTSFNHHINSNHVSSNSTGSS
Procedure: (§1) The inhibitory potency of synthetic compounds containing the N‐heterocyclic amide functionalities was evaluated against human GRK2, GRK5 and GRK6 using our in vitro assays‐, as reported previously.^[ [35], [37] ^] […] We then investigated the effect of (R)‐ and (S)‐Boc pyrrolidine carboxamide derivatives. […] These improvements of GRK5 IC50 values over their Boc‐derivatives (6c and 6d) indicated the bulky Boc group may not be able to fit as well in the catalytic site of these GRKs. On the other hand, sterically less demanding acetamide derivatives 6e and 6f were well accommodated consistent with their very good activity against GRK5, GRK6, and GRK2, but only with marginal selectivity against GRK2. […] We also examined the effect of 3(S)‐ and 3(R)‐Boc‐pyrrolidine derivatives.
(§2) Protein expression and purification.
(§3) Human GR K5 (residues 1- 590) w ild- type and D 311N mutant w ere expressed in E. co li Rosetta (D E3) and purified v ia nickel-nitrilotriacetic acid affinity chromatography, followed by tandem columns consisting of a HiTrap Q HP anion exchange chromatography column and a HiTrap SP HP cation exchange chromatography column, and finished by Superdex 200 Increase size -exclusion chromatography, as described previously. Human GRK6 (with T10A and mutations that eliminate palmitoylation sites) was expressed in Sf9 insect cells [ 2] and was purified w ith the same protocol for GR K5 [1]. Human GRK2 w as purified as described previously.
(§4) Kinase inhibition Assays.
(§5) Inhibit ion assays were conducted in a reaction mixture containing 20 mM H EPES pH 7. 0, 2 mM MgC l2, and 0.025% n- dodecyl-β-D-maltoside. Prior to reaction initiation, GR K5 or GR K6 at 50 nM was mixed w ith porcine brain tubulin ( PurSolutions) at a concentration of 500 nM. The assay w as started w ith a 30- second incubation of inhibitors, followed by the add it ion of 5 μ M ATP supplemented w ith radioactive [γ-32P]-AT P a t 60 C i/m mol (PerkinElm er Life Sciences). Re actions pro ceeded for 5 m inut es at ro o m te mpera ture a nd were terminated by adding 4X SDS loading buffer. T he reaction mixtures were then s eparated via SDS - PAG E, dried, and exposed using a phosphor imaging screen. Quantification was performed using a Personal Molecular Imager and Quantity One 1- D Analysis Software. Analogous inhibition assays were conducted on p urified GR K2 wit h a t ub ulin conce ntrat ion of 1 μ M. Data ana lysis was perf orme d usin g Graph Pa d Pr ism, and IC50 values wer e calculated based on three- parameter dose- dependent curves (with a Hill coefficient fixed at 1) plotting phosphate transfer against inhibitor concentration. At least three replicates were conducted to determine the mean and standard deviation of IC50 values as published previously . […]
(§6) (6) The final models w ere validated with MolProbity prior to depos ition along with structure factors in the Protein Data Bank. Atomic figures were created with Py mol (7). Cr ystallographic statistics are reported in Supplemental Table 1. Coordinates for inh ib itor 6t (GRL-098- 22) w ere deposited in the Protein Data Bank, with accession code 9BR K.
(§7) 1. Y. Chen, A. Sonawane, R. Manda, R. K. G adi, J. J. G. Tesmer, A. K. Ghosh. Development of a new class of potent and highly select ive G protein- coupled r eceptor kinase 5 inhibitors and structural insight from crystal structures of inhibitor complexes. Eur. J. Med. Chem. 2024, 264, 115931.
(§8) 2. D. T. Lodowski, V. M. T esmer, J. L. Benovic, J. J. Tesmer. The structure of G protein- coupled receptor kinase (GRK)-6 defines a second lineage of GRKs. J. Bio l. C he m. 2006, 281,16785- 16793.

[2] = molecular target: T2, GRK6 (Homo sapiens, UniProt P43250, C561S/C562S/C565S/T10A); assay: GRK6 kinase inhibition assay, phosphorylation of tubulin ([γ-32P]-ATP); details: for Selectivity GRK5/GRK6: fold selectivity for GRK6 over GRK5; for IC50: phosphorylation of the soluble substrate tubulin, ± standard deviation from 3 to 4 independent experiments
T2 construct: His tag (inferred: purified by the GRK5 protocol, which starts with nickel-NTA); made in house; host or cells: Sf9 insect cells
T2 sequence (P43250 whole entry T10A/C561S/C562S/C565S): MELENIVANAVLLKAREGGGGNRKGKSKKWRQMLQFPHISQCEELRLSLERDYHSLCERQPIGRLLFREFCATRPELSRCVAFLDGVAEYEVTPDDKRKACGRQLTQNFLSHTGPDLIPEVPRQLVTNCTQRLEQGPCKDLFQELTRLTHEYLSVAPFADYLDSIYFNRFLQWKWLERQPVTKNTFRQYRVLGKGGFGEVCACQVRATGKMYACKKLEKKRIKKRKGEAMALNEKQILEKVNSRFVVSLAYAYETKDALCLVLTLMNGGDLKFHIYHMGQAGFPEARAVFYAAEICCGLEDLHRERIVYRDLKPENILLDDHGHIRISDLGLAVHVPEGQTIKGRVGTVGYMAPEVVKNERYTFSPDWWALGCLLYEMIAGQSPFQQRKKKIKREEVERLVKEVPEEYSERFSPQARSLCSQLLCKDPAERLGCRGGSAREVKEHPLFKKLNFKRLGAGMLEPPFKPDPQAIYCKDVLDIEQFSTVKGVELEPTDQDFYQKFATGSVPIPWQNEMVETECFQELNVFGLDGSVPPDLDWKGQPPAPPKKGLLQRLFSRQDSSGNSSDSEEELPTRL
Procedure: as §1, §2, §3, §4, §5, §6, §7, §8

[3] = molecular target: T3, GRK2 (Homo sapiens, UniProt P25098); assay: GRK2 kinase inhibition assay, phosphorylation of tubulin ([γ-32P]-ATP); details: phosphorylation of the soluble substrate tubulin; ± standard deviation from 3 to 4 independent experiments
T3 construct: made in house
T3 sequence (P25098 1-689): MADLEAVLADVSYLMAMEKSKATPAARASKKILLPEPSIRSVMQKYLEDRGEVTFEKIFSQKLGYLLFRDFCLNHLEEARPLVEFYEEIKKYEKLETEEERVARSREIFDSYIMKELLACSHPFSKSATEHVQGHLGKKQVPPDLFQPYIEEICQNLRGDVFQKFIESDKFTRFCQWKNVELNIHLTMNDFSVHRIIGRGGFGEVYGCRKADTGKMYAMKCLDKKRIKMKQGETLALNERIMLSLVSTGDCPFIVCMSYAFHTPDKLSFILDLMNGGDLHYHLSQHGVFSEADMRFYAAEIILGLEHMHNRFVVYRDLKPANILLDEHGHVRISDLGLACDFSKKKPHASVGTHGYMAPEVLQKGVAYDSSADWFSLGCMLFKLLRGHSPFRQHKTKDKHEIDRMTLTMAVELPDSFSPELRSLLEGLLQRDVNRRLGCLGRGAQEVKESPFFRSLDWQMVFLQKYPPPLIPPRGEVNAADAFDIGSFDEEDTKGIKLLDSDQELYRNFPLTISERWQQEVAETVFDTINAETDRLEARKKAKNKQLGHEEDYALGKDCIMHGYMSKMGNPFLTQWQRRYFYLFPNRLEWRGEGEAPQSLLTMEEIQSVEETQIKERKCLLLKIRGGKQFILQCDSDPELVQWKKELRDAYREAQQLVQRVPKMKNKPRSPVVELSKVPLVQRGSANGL
Procedure: as §1, §2, §3, §4, §5, §6, §7, §8

| SMILES | Selectivity GRK2/GRK5 [1] [fold] | IC50 [1] [µM] | Selectivity GRK5/GRK6 [2] [fold] | IC50 [2] [µM] | IC50 [3] [µM] | selectivity over GRK2 ([1]; GRK5 vs GRK2, as stated in text) | fold enhanced GRK5 inhibitory activity ([1]; over the (R)-Boc derivative 6c) | fold reduction of GRK5 activity ([1]; in comparison with compound 6a) [fold] |
| --- | --- | --- | --- | --- | --- | --- | --- | --- |
| CC(=O)N1CCC[C@@H]1C(=O)Nc1c(C)[nH]c(/C=C2\C(=O)Nc3ccc(C(=O)N[C@H](C)c4ccc(F)cc4)cc32)c1C [6e, (Z)‐3‐((4‐((R)‐1‐Acetylpyrrolidine‐2‐Carboxamido)‐3,5‐Dimethyl‐1H‐Pyrrol‐2‐Yl)Methylene)‐N‐((R)‐1‐(4‐Fluorophenyl)Ethyl)‐2‐Oxoindoline‐5‐Carboxamide] | 8 | 0.04 ± 0.006 | 1 | 0.06 ± 0.02 | 0.32 ± 0.09 | – | – | – |
| Cc1[nH]c(/C=C2\C(=O)Nc3ccc(C(=O)N[C@H](C)c4ccc(F)cc4)cc32)c(C)c1NC(=O)[C@@H]1CNCCN1 [6v, (Z)‐3‐((3,5‐Dimethyl‐4‐((S)‐Piperazine‐2‐Carboxamido)‐1H‐Pyrrol‐2‐Yl)Methylene)‐N‐((R)‐1‐(4‐Fluorophenyl)Ethyl)‐2‐Oxoindoline‐5‐Carboxamide] | 10 | 0.016 ± 0.0005 | 1 | 0.026 ± 0.02 | 0.19 ± 0.1 | – | – | – |
| Cc1[nH]c(/C=C2\C(=O)Nc3ccc(C(=O)N[C@H](C)c4ccc(F)cc4)cc32)c(C)c1NC(=O)[C@@H]1C=CCN1 [6j, (Z)‐3‐((4‐((S)‐2,5‐Dihydro‐1H‐Pyrrole‐2‐Carboxamido)‐3,5‐Dimethyl‐1H‐Pyrrol‐2‐Yl)Methylene)‐N‐((R)‐1‐(4‐Fluorophenyl)Ethyl)‐2‐Oxoindoline‐5‐Carboxamide] | 16 | 0.03 ± 0.004 | 1 | 0.03 ± 0.01 | 0.48 ± 0.4 | over 15 fold | – | – |
| Cc1[nH]c(/C=C2\C(=O)Nc3ccc(C(=O)N[C@H](C)c4ccc(F)cc4)cc32)c(C)c1NC(=O)[C@H]1CCCN1 [6g, (Z)‐3‐((3,5‐Dimethyl‐4‐((R)‐Pyrrolidine‐2‐Carboxamido)‐1H‐Pyrrol‐2‐yl)Methylene)‐N‐((R)‐1‐(4‐Fluorophenyl)Ethyl)‐2‐Oxoindoline‐5‐Carboxamide] | 3 | 0.04 ± 0.02 | 1 | 0.03 ± 0.002 | 0.1 ± 0.01 | – | – | – |
| Cc1[nH]c(/C=C2\C(=O)Nc3ccc(C(=O)N[C@H](C)c4ccc(F)cc4)cc32)c(C)c1NC(=O)[C@@H]1CCCN1C(=O)OC(C)(C)C [6d, Tert‐Butyl(S)‐2‐((5‐(((Z)‐5‐(((R)‐1‐(4‐Fluorophenyl)Ethyl)Carbamoyl)‐2‐Oxoindolin‐3‐Ylidene)Methyl)‐2,4‐Dimethyl‐1H‐Pyrrol‐3‐Yl)Carbamoyl)Pyrrolidine‐1‐Carboxylate] | >2000 | 0.44 ± 0.16 | – | 9.9 ± 2 | > 1000 | – | over 100 fold | – |
| Cc1[nH]c(/C=C2\C(=O)Nc3ccc(C(=O)N[C@H](C)c4ccc(F)cc4)cc32)c(C)c1NC(=O)[C@@H]1CCCCN1C(=O)OC(C)(C)C [6n, Tert‐Butyl(S)‐2‐((5‐(((Z)‐5‐(((R)‐1‐(4‐Fluorophenyl)Ethyl)Carbamoyl)‐2‐Oxoindolin‐3‐Ylidene)Methyl)‐2,4‐Dimethyl‐1H‐Pyrrol‐3‐Yl)Carbamoyl)Piperidine‐1‐Carboxylate] | 3 | 33 ± 6 | 37 | 0.9 ± 0.8 | 100 ± 70 | – | – | – |
| Cc1[nH]c(/C=C2\C(=O)Nc3ccc(C(=O)N[C@H](C)c4ccc(F)cc4)cc32)c(C)c1NC(=O)[C@@H]1CCCN1 [6h, (Z)‐3‐((3,5‐Dimethyl‐4‐((S)‐pyrrolidine‐2‐carboxamido)‐1H‐pyrrol‐2‐yl)methylene)‐N‐((R)‐1‐(4‐fluorophenyl)ethyl)‐2‐oxoindoline‐5‐carboxamide] | 1 | 0.09 ± 0.04 | 3 | 0.034 ± 0.01 | 0.08 ± 0.01 | – | – | – |
| Cc1[nH]c(/C=C2\C(=O)Nc3ccc(C(=O)N[C@H](C)c4ccc(F)cc4)cc32)c(C)c1NC(=O)[C@H]1CCCNC1 [6q, (Z)‐3‐((3,5‐Dimethyl‐4‐((S)‐Piperidine‐3‐Carboxamido)‐1H‐Pyrrol‐2‐Yl)Methylene)‐N‐((R)‐1‐(4‐Fluorophenyl)Ethyl)‐2‐Oxoindoline‐5‐Carboxamide] | 4 | 0.03 ± 0.02 | 2 | 0.016 ± 0.003 | 0.11 ± 0.02 | – | – | – |
| Cc1[nH]c(/C=C2\C(=O)Nc3ccc(C(=O)N[C@H](C)c4ccc(F)cc4)cc32)c(C)c1NC(=O)[C@H]1CCCN1C(=O)OC(C)(C)C [6c, Tert‐Butyl(R)‐2‐((5‐(((Z)‐5‐(((R)‐1‐(4‐Fluorophenyl)Ethyl)Carbamoyl)‐2‐Oxoindolin‐3‐Ylidene)Methyl)‐2,4‐Dimethyl‐1H‐Pyrrol‐3‐Yl)Carbamoyl)Pyrrolidine‐1‐Carboxylate] | >3 | 50 ± 30 | 35 | 1.4 ± 0.5 | 160 ± 100 | – | – | – |
| Cc1[nH]c(/C=C2\C(=O)Nc3ccc(C(=O)N[C@H](C)c4ccc(F)cc4)cc32)c(C)c1NC(=O)[C@H]1CCN(C(=O)OC(C)(C)C)C1 [6l, Tert‐Butyl(S)‐3‐((5‐(((Z)‐5‐(((R)‐1‐(4‐Fluorophenyl)Ethyl)Carbamoyl)‐2‐Oxoindolin‐3‐Ylidene)Methyl)‐2,4‐Dimethyl‐1H‐Pyrrol‐3‐Yl)Carbamoyl)Pyrrolidine‐1‐Carboxylate] | >1000 | 1 ± 0.6 | 1 | 0.88 ± 0.05 | > 1000 | – | – | – |
| Cc1[nH]c(/C=C2\C(=O)Nc3ccc(C(=O)N[C@H](C)c4ccc(F)cc4)cc32)c(C)c1NC(=O)[C@H]1CCC(=O)N1 [6b, (Z)‐3‐((3,5‐Dimethyl‐4‐((R)‐5‐Oxopyrrolidine‐2‐Carboxamido)‐1H‐Pyrrol‐2‐Yl)Methylene)‐N‐((R)‐1‐(4‐Fluorophenyl)Ethyl)‐2‐Oxoindoline‐5‐Carboxamide] | 3 | 0.8 ± 0.4 | 30 | 0.028 ± 0.002 | 2.1 ± 0.2 | – | – | 30 |
